{"source": "patent US9890192B2", "about": "“Targeted nitroxide agents” (University of Pittsburgh—of the Commonwealth System of …, priority 2008, dated 2018)", "key": {"[1]": {"system": "mouse embryonic cells (MEC)", "test": "EPR-based analysis of integration and reduction of nitroxide Gramicidin S-peptidyl conjugates in MECs", "assay_type": "cell-based", "conditions": "10 μM, whole cells, cytosol fractions", "description": "Electron paramagnetic resonance (“EPR”) spectroscopy was used to monitor the cellular delivery of compounds 5a and 5b shown in FIG. 3 in mouse embryonic cells (“MEC”).\nThe following conditions were used during the EPR-based analysis of the integration and reduction of nitroxide Gramicidin S-peptidyl conjugates in MECs. The MECs at a concentration of 10 million MECs per mL were incubated with 10 μM of 4-AT and compound 5a, respectively. Recovered nitroxide radicals in whole cells, mitochondria, and cytosol fractions were resuspended in phosphate buffer saline (“PBS”) in the presence and absence, respectively, of 2 μM K3Fe(CN)6."}, "caspases 3 and 7": {"system": "caspases 3 and 7", "test": "Caspases 3 and 7 activity assay in gut mucosa after hemorrhagic shock", "assay_type": "in vivo, rat", "conditions": "intraluminal XJB-5-131 solution vs vehicle", "description": "Caspases 3 and 7 activity assay. Caspases 3 and 7 activity was measured using a commercially available assay kit, Caspase Glo™ 3/7 assay kit (Promega, Madison, Wis.). Briefly, 50 μl of rat gut mucosa homogenate (20 jug protein) was mixed with 50 μl of Caspase-Glo™ reagent and incubated at room temperature for 1 hour. At the end of incubation period, the luminescence of each sample was measured using a plate reading chemiluminometer (ML1000, Dynatech Laboratories, Horsham, Pa.). Activity of caspases 3 and 7 was expressed as luminescence intensity (arbitrary units per mg protein). Protein concentrations were determined using the BioRad assay (Bio-Rad Laboratories, Inc., Hercules, Calif.).\nAfter two hours of HS, samples of ileal mucosa from the gut sacs filled with the vehicle and XJB-5-131 were obtained and compared with ileal mucosa of normal MECs. All samples were assayed with caspase 3 or caspase 7 activity as well as the peroxidation of phosphatidylcholine (“PC”), phosphatidylethanolamine (“PE”), phosphatidylserine (“PS”), and cardiolipin (“CL”), summarized in FIG. 7."}, "[2]": {"system": "rats subjected to volume-controlled hemorrhagic shock", "test": "Survival of rats subjected to volume-controlled hemorrhagic shock", "assay_type": "in vivo, rat", "conditions": "2 μmol/kg intravenous; for survival vs vehicle: last 20 min of hemorrhage", "description": "Survival of rats subjected to volume-controlled hemorrhagic shock. Following surgical preparation and a 5-min stabilization period to obtain baseline readings, rats were subjected to hemorrhagic shock. Bleeding was carried out in 2 phases.\nInitially, 21 ml/kg of blood was withdrawn over 20 min. Immediately thereafter, an additional 12.5 ml/kg of blood was withdrawn over 40 min. Thus, hemorrhage occurred over a total period of 60 min and the total blood loss was 33.5 ml/kg or approximately 55% of the total blood volume. Rats were randomly assigned to receive XJB-5-131 (2 μmol/kg) or its vehicle, a 33:67 (v/v) mixture of DMSO and normal saline. XJB-5-131 solution or vehicle alone was administered as a continuous infusion during the last 20 min of the hemorrhage period. The total volume of fluid infused was 2.8 ml/kg and it was administered intravenously using a syringe pump (KD100, KD Scientific, New Hope, Pa.). […] At the end of the 6 hour observation period, animals that were still alive were euthanized with an overdose of KCl.\nA total of sixteen rats were tested in this study. Rats were treated with 2.8 ml/kg of vehicle or the same volume of XJB-5-131 solution during the final 20 min of the bleeding protocol. The total dose of XJB-5-131 infused was 2 μmol/kg. Following profound hemorrhagic shock consistent with the protocol described above for the prior studies, thirteen survived for at least 60 min and received the full dose of either XJB-5-131 solution or the vehicle, a 33:67 (v/v) mixture of DMSO and normal saline. […] None of the between-group differences were statistically significant."}, "[3]": {"system": "Ercc1−/cond; K14-Cre mice", "test": "Photoaging after UV-B in Ercc1−/cond; K14-Cre mice", "assay_type": "in vivo, mouse", "conditions": "80 μg in a cream daily for five days", "description": "As a measure of the effect of XJB-5-131 on photoaging, Ercc1^−/cond; K14-Cre mice, which are missing ERCC1 only in the skin, were shaved, treated with a depilatory then irradiated with UV-B light to induce a sunburn (500 J/m^2, the median erythemal dose). Subsequently, the mice were treated with XJB-5-131 (80 μg) emulsified in a cream daily for five days."}, "[4]": {"system": "MEF cells from Ercc1−/− mouse embryos", "test": "Senescence, DNA damage and apoptosis in Ercc1−/− MEF cells under ambient oxygen", "assay_type": "cell-based", "conditions": "500 nM", "description": "Graphs showing weight over time of treated, untreated and control animals are shown in FIG. 36A-B. To assess the impact of XJB-5-131 at a cellular level, a number of experiments were carried out using mouse embryonic fibroblasts (“MEF”) cells harvested from Ercc1^−/− mouse embryos."}, "[5]": {"system": "p16 in primary MEFs from Ercc1−/− mouse embryos", "test": "p16 immunofluorescence in Ercc1−/− MEFs under 20% oxygen", "assay_type": "cell-based", "conditions": "1 uM, 48 hrs", "description": "To test the protective activity of JP4-039, cultures of primary MEFs were prepared from Ercc1^−/− mouse embryos and grown under 20% oxygen (ambient air), which creates oxidative stress in these cells that are hypersensitive to reactive oxygen species. The cells were then either treated with a concentration of 1 uM XJB-5-131, JP4-039, JED-E71-37 or JED-E71-58, or left untreated (media), and then after 48 hrs the level of p16, a marker of irreversible cellular senescence, was measured by immunofluorescence staining."}, "[6]": {"system": "γ-H2AX in primary MEF cells from Ercc1−/− mice", "test": "γ-H2AX immunostaining in Ercc1−/− MEFs under oxidative stress", "assay_type": "cell-based, mouse", "conditions": "1 μM, 48 hours", "description": "Next, the abilities of these two agents, as well as XJB-5-131 and JP4-039, each at a concentration of 1 μM, were tested for their ability to prevent oxidation-induced DNA double-strand breaks in cell cultures prepared, and oxidatively stressed, as in the preceding paragraph. Treated as well as untreated cells were, after 48 hours of treatment, immunostained for γ-H2AX, a marker of DNA double-strand breaks as well as cellular senescence."}}, "data": [{"smiles": "CC(C)C[C@@H](/C=C/[C@H](Cc1ccccc1)C(=O)N1CCC[C@H]1C(=O)N[C@H](C(=O)N[C@@H](CCCNC(=O)OCc1ccccc1)C(=O)NC1CC(C)(C)N([O])C(C)(C)C1)C(C)C)NC(=O)OC(C)(C)C", "note": "[XJB-5-131]", "values": [{"measurement": "EPR signals of nitroxide radicals; integration into cells and mitochondria", "setting": "[1]", "value": "concentrated in the mitochondria"}, {"measurement": "caspase 3 and 7 activity after hemorrhagic shock", "setting": "caspases 3 and 7", "value": "significantly decreased"}, {"measurement": "rats surviving longer than 3 hours after completion of the hemorrhage protocol", "setting": "[2]", "value": "Three of the six"}, {"measurement": "rats surviving the whole 6 hour post-bleeding observation period", "setting": "[2]", "value": "one"}, {"measurement": "survival vs vehicle", "setting": "[2]", "value": "survived significantly longer"}, {"measurement": "survival vs vehicle", "setting": "[2]; listed as XJR-5-131", "value": "significantly prolonged the survival"}, {"measurement": "appearance of skin after UV-B", "setting": "[3]", "value": "much more smooth and healthy"}, {"measurement": "SA-β galactosidase staining", "setting": "[4]", "value": "notably less"}, {"measurement": "apoptosis", "setting": "[4]", "value": "did not reduce the amount of apoptosis"}, {"measurement": "γH2AX foci", "setting": "[4]", "value": "reduce the number of γH2AX foci"}, {"measurement": "level of p16", "setting": "[5]", "value": "less effective"}, {"measurement": "γ-H2AX (oxidation-induced DNA double-strand breaks)", "setting": "[6]", "value": "less effective"}]}]}
